Laboratory results from patent publication EP1175907A1, “REMEDIES” (Takara Shuzo Co, Ltd., priority 1999, dated 2000).
“And” between values parts separate entries of the source, which are not always exact repeats. Equal entries are not always repeated.

Assays:
MRC-5 cells [1] = assay: induction action for HGF production in MRC-5 cells (HGF ELISA of medium); type: cell-based, Human; details: 24 h, control = 100%
Method: (1) Five-hundred microliters each of MRC-5 cells (CCL171: manufactured by DAINIPPON PHARMACEUTICAL CO., LTD., code. 02-021) suspended in a DME medium containing 10% fetal bovine serum so as to have a concentration of 1 × 10^5 cells/ml were added into each well of a 48-well cell culture plate. The cells were cultured at 37°C for 24 hours in the presence of 5% CO2, and then the medium was exchanged for a DME medium containing 1% fetal bovine serum. […] The medium was then collected, and by using Quantikine Human Hepatocyte Growth Factor (HGF) ELISA Kit (manufactured by Funakoshi, Code. RS-0641-00), the amount of HGF in the medium was determined.
As a control, distilled water was added in the same volume as that of the sample. The amount of HGF of the control was 7.2 ng/ml. The amount of HGF produced in each sample-added group is shown in Table 1, assuming that the value of the control is 100%. Each experiment was carried out twice, and its average value was taken.

MRC-5 cells [2] = assay: HGF production in MRC-5 cells with cycloheximide (protein synthesis inhibitor); type: cell-based, Human; details: for Amount of HGF Produced (in Medium): control = 100%
Method: (1) Five-hundred microliters of a solution containing MRC-5 cells suspended in a DME medium containing 10% fetal bovine serum so as to have a concentration of 1 × 10^5 cells/ml were added into each well of a 48-well cell culture plate. The cells were cultured at 37°C for 24 hours in the presence of 5% CO2, and then the medium was exchanged for a DME medium containing 1% fetal bovine serum. Thereafter, cycloheximide (protein synthesis inhibitor: manufactured by nacalaitesque) was added thereto so as to have a final concentration of 0, 1, or 10 µg/ml, and a sample to be analyzed was further added thereto. Thereafter, the cells were cultured for 24 hours. This medium was collected, and the amount of HGF in the medium was determined by using the HGF ELISA Kit. The fucoidan derived from Kjellmaniella crassifolia described in item (1) of Reference Example 1 was added so as to have a final concentration of 1, 10 or 100 µg/ml. As a control, distilled water was added in the same volume as that of the sample. Each experiment was carried out twice, and an average value was taken. In Table 50, the amount of HGF produced of the control was regarded as 100%.
(2) Five-hundred microliters of MRC-5 cells (CCL171: manufactured by DAINIPPON PHARMACEUTICAL CO., LTD., code. 02-021) suspended in a DME medium containing 10% fetal bovine serum so as to have a concentration of 1 × 10^5 cells/ml were added into each well of a 48-well cell culture plate. The cells were cultured at 37°C for 24 hours in the presence of 5% CO2, and then the medium was exchanged for a DME medium containing 1% fetal bovine serum. Thereafter, cycloheximide (protein synthesis inhibitor: manufactured by nacalaitesque) was added thereto so as to have a final concentration of 0, 1, or 10 µg/ml, and a sample to be analyzed was further added thereto. The cells were then cultured for 24 hours. This medium was collected, and the amount of HGF in the medium was determined by using Quantikine Human Hepatocyte Growth Factor (HGF) ELISA Kit (manufactured by Funakoshi, Code. RS-0641-00). In addition, the cells were washed with PBS, and thereafter dissolved in 500 µl of a cytolytic buffer (50 mM HEPES, pH 7.4; 10 mM EDTA, 0.1% Triton x 100; 1 mM PMSF; 1 µg/ml pepstatin A and 1 µg/ml leupeptin). Further, in order to completely dissolve the cells, the mixture was subjected to sonication treatment, and then centrifuged, to give a supernatant (cell extract). The amount of HGF in the cell was determined in the same manner as that of the concentration of HGF in the medium. As to the amount of HGF produced, negative control was regarded as 100%. As to the inhibitory ratio, the inhibitory ratio (%) in the cycloheximide-added fraction was calculated on the basis of the amount of HGF produced when 7-12SFd-F was added alone at each concentration. 7-12SFd-F was added so as to have a final concentration of 1, 10 or 100 µg/ml. As the negative control, distilled water was added in the same volume as that of the sample. Each experiment was carried out three times, and an average value was taken. […] It was clarified from these findings that protein synthesis was involved in the induction of HGF production by 7-12SFd-F, not simply freeing of HGF from the cells.

Compound	Amount of HGF Produced (MRC-5 cells [1]; sample 1 µg/ml)	Amount of HGF Produced (MRC-5 cells [1]; sample 10 µg/ml)	Amount of HGF Produced (MRC-5 cells [1]; sample 100 µg/ml)	Amount of HGF Produced (MRC-5 cells [1]; sample 1000 µg/ml)	also measured
sodium salt of sulfated lactose	118%	185%	410%	–	–
sodium salt of sulfated trehalose	277%	447%	421%	–	–
sodium salt of sulfated D-(+)-galactose [Sodium Salt of Sulfated Galactose]	–	–	166%	–	–
sodium salt of sulfated sucrose	173%	355%	501%	–	–
sodium salt of sulfated D-(+)- xylose [Sodium Salt of Sulfated Xylose]	–	110%	112%	284%	–
sodium salt of sulfated isomaltose	–	134%	301%	477%	–
sodium salt of sulfated maltoheptaose	–	341%	486%	706%	–
sodium salt of sulfated maltohexaose	–	407%	571%	761%	–
sodium salt of sulfated D-glucitol [Sodium Salt of Sulfated Glucitol]	–	112%	203%	335%	–
sodium salt of sulfated maltotriose	151%	286%	387%	–	–
sodium salt of sulfated 2-deoxy-glucose	–	127%	102%	239%	–
sodium salt of sulfated cellobiose	–	100%	143%	546%	–
sodium salt of sulfated dodecyl-maltohexaose	–	289%	371%	359%	–
sodium salt of sulfated palatinose	–	132%	278%	519%	–
C[C@@H]1C[C@@H]([C@H](O)CC2CC(=O)NC(=O)C2)C(=O)[C@@H](C)C1 [Cycloheximide, cycloheximide]	–	–	–	–	Amount of HGF Produced (Total in Cells and in Medium) (MRC-5 cells [2]; Cycloheximide 1 µg/ml alone): 31%; Inhibitory Ratio Where Cycloheximide Non-Added Group Was Regarded as 100% (Total in Cells and in Medium) (MRC-5 cells [2]; Cycloheximide 1 µg/ml alone): 69%; Inhibitory Ratio Where Cycloheximide Non-Added Group Was Regarded as 100% (in Medium) (MRC-5 cells [2]; Cycloheximide 1 µg/ml alone): 60%; Amount of HGF Produced (in Medium) (MRC-5 cells [2]; Cycloheximide 1 µg/ml alone): 35% and 40%; Amount of HGF Produced (Total in Cells and in Medium) (MRC-5 cells [2]; Cycloheximide 10 µg/ml alone): 27%; Inhibitory Ratio Where Cycloheximide Non-Added Group Was Regarded as 100% (Total in Cells and in Medium) (MRC-5 cells [2]; Cycloheximide 10 µg/ml alone): 73%; Inhibitory Ratio Where Cycloheximide Non-Added Group Was Regarded as 100% (in Medium) (MRC-5 cells [2]; Cycloheximide 10 µg/ml alone): 60%; Amount of HGF Produced (in Medium) (MRC-5 cells [2]; Cycloheximide 10 µg/ml alone): 27% and 40%
sodium salt of sulfated D-(+)-glucose [Sodium Salt of Sulfated Glucose]	178%	377%	864%	–	–
sodium salt of sulfated melibiose	–	240%	403%	667%	–
sodium salt of sulfated maltose	142%	273%	439%	–	–
sodium salt of sulfated turanose	–	127%	203%	379%	–
sodium salt of sulfated D-(+)- mannose [Sodium Salt of Sulfated Mannose]	112%	175%	456%	–	–
sodium salt of sulfated lactulose	–	139%	376%	583%	–
sodium salt of sulfated D-talose [Sodium Salt of Sulfated Talose]	–	112%	263%	494%	–
